Test results: publication PMC11061149, “Protein mimetic 2D FAST rescues alpha synuclein aggregation mediated early and post disease Parkinson’s phenotypes” (Nature Communications, 2024)
Several values for one entry are separate records, joined by “and”; a condition that tells them apart may be missing. Equal entries are not always repeated.

Key:
[1] = test system: HEK293 cells stably expressing αS-A53T-YFP; assay: HEK cells transfected with αS aggregated with or without ligand: inclusions (ProteoStat dye, confocal); format: cell-based, human
Procedure: The aggregation of endogenous monomeric αS-A53T-YFP into fibers can be detected by the intracellular fluorescent puncta (Fig. 3a, + αS). A solution of 100 μM αS was aggregated in the absence and presence of NS132 at an equimolar ratio for four days. The resulting solutions of αS fibers (5 μM in monomeric αS, ±NS132) were introduced to HEK cells in the presence of Lipofectamine 3000 for 24 h. In contrast to the control (no fibers), we observed a significant number of fluorescent inclusions in the presence of αS fibers (Fig. 3a, white arrows, +αS), which was a consequence of the templating of endogenous monomeric αS-A53T-YFP by the exogenously added αS fibers. […] Moreover, we observed the colocalization of an adaptor protein, p62, in the aggresome of αS inclusions in HEK cells (Fig. 3b, +αS, red),[51]–[54]. […] The autophagy machinery regulates many vital cellular processes and its impairment due to αS aggregation can lead to PD and other neurodegenerative disorders[51]–[54]. […] We also quantified the inclusions (αS-A53T-YFP) using a ProteoStat dye-based high throughput 96-well plate reader-based assay recently developed in our lab[24]. The ProteoStat dye-based intensity of HEK cells treated with αS fibers was ~4-5 fold higher than the control (no fibers) (Fig. 3c, +αS, black). […] Therefore, we used HEK cells to test the cytotoxicity of the aggregated solution of αS in the absence and presence of NS132 (Fig. 3d). The viability of HEK cells was measured using the (3-(4,5-dimethylthiazol-2-yl)-2,5-diphenyltetrazolium bromide) (MTT) reduction based assay.
The Lipofectamine solution was made fresh for each transfection to avoid possible denaturation of reagents in a stored stock solution. For each transfection protocol, the total volume of lipofectamine solution required is equivalent to 30% of the total volume of αS/lipofectamine solution needed. […]
This assay was performed based on a previous protocol with slight modifications. […] The resulting cell pellets were then homogenized, transferred into an autoclaved 1.7 mL microcentrifuge tube, and counted to normalize the data. […]

NL5901 worms = assay: Motility assay of NL5901 worms (WMicroTracker ARENA); format: in vivo, C. elegans; conditions: for Motility of NL5901 worms + NS132: individual trials
Procedure: Briefly, all worm strains were bleached at the same time and the eggs were incubated on PLATE 1. On day two, the worms were divided into two batches. […] The liquid media for PLATE 4 A/B was prepared with 67.28% (v/v) of M9 buffer, 75 μM FUDR, 0.1% of 1 M magnesium sulfate (v/v), 0.1% of 1 M calcium chloride (v/v), 2.5% of 1 M potassium phosphate solution (pH 6, v/v), and 30% (v/v) of OP50 (0.5 OD600nm). […] To test the effect of each ligand on disease worm strains (NL5901 or UA196), there were four conditions were used in PLATE 4 A/B: […] The assay was started on day four using the WMicroTracker ARENA plate reader (Phylumtech, Santa Fe, Argentina) at 20 °C for 1 h per day over a 14-day period at intervals of 24 h. The WMicroTracker ARENA plate reader uses a large array of infrared light microbeams in each well of the plate to detect the interference caused by the movement of the worms. The output by the ARENA plate reader is an average of the overall movement of all worms present in each well, which is denoted as the motility of the worms in each well. […] After collecting the data each day, the PLATE 4 A/B was again placed on the shaker (100 rpm) at 20 °C in the incubator. The PLATE 4 A/B was on the on the shaker (100 rpm) at 20 °C in the incubator the whole duration of the experiment except only when the reading was collected on the WMicroTracker ARENA plate reader for 1 h.

`Cc1ccc(NC(=O)c2ccc(NC(=O)c3ccc([N+](=O)[O-])c(NCCc4c[nH]c5ccccc45)n3)c(NCC3CCCCC3)n2)c(OCC(=O)O)n1` [NS132] was tested, and the “intracellular αS-A53T-YFP inclusions (confocal), in words” value ([1]; HEK293 cells transfected with αS aggregated in the presence of NS132) was “significant decrease”, the “ProteoStat intensity versus control (no fibers), in words” value ([1]; HEK cells + 5 μM αS aggregated with equimolar NS132) was “did not observe a significant difference” and the “ProteoStat dye intensity (raw), individual experiments” value ([1]; HEK cells + 5 μM αS fibers aggregated with equimolar NS132, 24 h) was 538 and 599 and 420 and 486 and 619 and 476 and 665 and 696 and 519 and 621 and 647 and 693. For the same compound, the “motility of NL5901 worms, in words” value (NL5901 worms; 50 μM ligand on day two and day four) was “increase in the motility”, the “Motility of NL5901 worms + NS132” value (NL5901 worms; Day 4) was 255 and 287 and 207 and 297 and the “Motility of NL5901 worms + NS132” value (NL5901 worms; Day 5) was 181 and 139 and 108 and 189. The “Motility of NL5901 worms + NS132” value (NL5901 worms; Day 6) was 201 and 130 and 176 and 121, the “Motility of NL5901 worms + NS132” value (NL5901 worms; Day 7) was 101 and 172 and 160 and 83 and the “Motility of NL5901 worms + NS132” value (NL5901 worms; Day 8) was 129 and 117 and 94 and 99. The “Motility of NL5901 worms + NS132” value (NL5901 worms; Day 9) was 107 and 89 and 145 and 65, the “Motility of NL5901 worms + NS132” value (NL5901 worms; Day 10) was 127 and 107 and 105 and 52 and the “Motility of NL5901 worms + NS132” value (NL5901 worms; Day 11) was 74 and 83 and 88 and 72. For the same compound, the “Motility of NL5901 worms + NS132” value (NL5901 worms; Day 12) was 57 and 70 and 69 and 56, the “Motility of NL5901 worms + NS132” value (NL5901 worms; Day 13) was 38 and 34 and 42 and 33 and the “Motility of NL5901 worms + NS132” value (NL5901 worms; Day 14) was 27 and 43 and 19 and 20.
